In ChEMBL document CHEMBL1132091, “Synthesis and biological activity of substituted bis-(4-hydroxyphenyl)methanes as N-type calcium channel blockers” (Bioorg Med Chem Lett, 1999):
pIC50: −log10 of the molar value.

Columns and labels:
[1] = Blockade of Na+ channels in SCG neurons at 10 uM; format: functional; conditions: Rattus norvegicus
[2] = Blockade of K+ channels in SCG neurons at 10 uM; format: functional; conditions: Rattus norvegicus
[3] = biological target: Voltage-gated L-type calcium channel (Rattus norvegicus, UniProt P22002+Q02485+P27732); experiment: Inhibition of L-type calcium channels in GH-3 rat pituitary cells; format: functional, cell-based; conditions: pituitary gland cell
[4] = biological target: T1, Voltage-dependent N-type calcium channel subunit alpha-1B (Homo sapiens, UniProt Q00975); experiment: Inhibition of N-type calcium channel in IMR-32 human neuroblastoma cell; format: functional
Target sequence in this assay (Q00975 whole entry): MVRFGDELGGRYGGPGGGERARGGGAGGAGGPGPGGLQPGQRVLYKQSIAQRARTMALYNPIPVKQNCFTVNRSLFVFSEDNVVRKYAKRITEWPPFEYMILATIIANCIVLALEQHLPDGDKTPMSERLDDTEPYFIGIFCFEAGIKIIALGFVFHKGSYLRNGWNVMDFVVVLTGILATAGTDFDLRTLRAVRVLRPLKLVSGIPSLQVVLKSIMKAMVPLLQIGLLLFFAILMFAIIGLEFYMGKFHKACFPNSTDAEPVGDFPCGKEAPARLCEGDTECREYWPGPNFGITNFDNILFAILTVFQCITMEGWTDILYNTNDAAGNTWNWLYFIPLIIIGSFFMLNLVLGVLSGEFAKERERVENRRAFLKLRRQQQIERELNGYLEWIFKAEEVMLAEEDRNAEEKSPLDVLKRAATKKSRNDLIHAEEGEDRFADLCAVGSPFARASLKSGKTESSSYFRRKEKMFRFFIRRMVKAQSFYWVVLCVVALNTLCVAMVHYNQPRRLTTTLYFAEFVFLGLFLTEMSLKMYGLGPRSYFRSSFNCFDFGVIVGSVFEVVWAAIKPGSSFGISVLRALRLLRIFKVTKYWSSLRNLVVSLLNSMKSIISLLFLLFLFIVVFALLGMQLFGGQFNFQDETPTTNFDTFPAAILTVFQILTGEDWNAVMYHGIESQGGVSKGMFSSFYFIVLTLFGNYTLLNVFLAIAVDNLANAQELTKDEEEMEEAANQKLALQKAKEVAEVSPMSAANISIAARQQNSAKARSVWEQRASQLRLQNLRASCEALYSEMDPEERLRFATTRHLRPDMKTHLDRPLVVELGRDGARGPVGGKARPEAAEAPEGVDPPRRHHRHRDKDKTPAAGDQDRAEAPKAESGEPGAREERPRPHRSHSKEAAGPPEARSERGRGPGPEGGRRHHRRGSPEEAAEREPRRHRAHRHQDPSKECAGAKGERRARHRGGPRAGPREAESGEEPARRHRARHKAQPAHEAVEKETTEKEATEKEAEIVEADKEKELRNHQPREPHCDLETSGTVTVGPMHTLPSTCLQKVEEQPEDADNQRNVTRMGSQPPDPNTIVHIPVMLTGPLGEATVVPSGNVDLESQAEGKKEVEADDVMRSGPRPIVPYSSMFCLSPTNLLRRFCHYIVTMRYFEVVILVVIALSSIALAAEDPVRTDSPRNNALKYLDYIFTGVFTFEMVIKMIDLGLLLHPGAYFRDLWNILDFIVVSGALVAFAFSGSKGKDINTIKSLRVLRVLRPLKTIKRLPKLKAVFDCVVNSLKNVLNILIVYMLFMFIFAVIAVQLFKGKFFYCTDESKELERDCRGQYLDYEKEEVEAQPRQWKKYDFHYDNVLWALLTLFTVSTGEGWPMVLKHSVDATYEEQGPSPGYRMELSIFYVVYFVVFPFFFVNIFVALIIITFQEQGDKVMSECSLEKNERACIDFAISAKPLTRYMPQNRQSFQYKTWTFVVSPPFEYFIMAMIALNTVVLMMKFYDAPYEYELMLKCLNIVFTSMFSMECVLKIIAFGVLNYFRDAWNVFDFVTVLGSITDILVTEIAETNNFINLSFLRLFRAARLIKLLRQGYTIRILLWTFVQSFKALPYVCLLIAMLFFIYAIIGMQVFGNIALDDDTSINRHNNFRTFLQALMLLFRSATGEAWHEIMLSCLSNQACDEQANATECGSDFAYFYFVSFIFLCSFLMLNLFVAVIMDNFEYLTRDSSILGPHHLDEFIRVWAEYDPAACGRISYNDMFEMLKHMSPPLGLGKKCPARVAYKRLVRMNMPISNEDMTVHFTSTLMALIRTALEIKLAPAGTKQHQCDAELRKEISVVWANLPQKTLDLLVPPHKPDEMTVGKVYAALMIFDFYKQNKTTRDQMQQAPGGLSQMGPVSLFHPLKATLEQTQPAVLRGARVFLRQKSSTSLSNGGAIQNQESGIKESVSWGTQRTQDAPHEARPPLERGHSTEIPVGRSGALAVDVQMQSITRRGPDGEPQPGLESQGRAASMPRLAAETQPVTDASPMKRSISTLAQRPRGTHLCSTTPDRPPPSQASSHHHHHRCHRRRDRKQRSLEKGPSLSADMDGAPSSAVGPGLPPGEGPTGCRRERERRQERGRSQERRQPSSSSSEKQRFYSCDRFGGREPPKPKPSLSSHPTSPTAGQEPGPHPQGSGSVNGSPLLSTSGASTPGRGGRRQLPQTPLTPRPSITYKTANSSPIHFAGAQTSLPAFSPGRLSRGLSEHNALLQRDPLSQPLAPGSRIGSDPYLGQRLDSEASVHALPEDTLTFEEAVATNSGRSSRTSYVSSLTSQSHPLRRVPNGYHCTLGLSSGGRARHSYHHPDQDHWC

[5] = biological target: T1, Voltage-dependent N-type calcium channel subunit alpha-1B; experiment: Inhibition of N-type calcium channels in IMR-32 human neuroblastoma cells; format: functional, cell-based
Target sequence in this assay (Q00975 whole entry): as above

[6] = biological target: T1, Voltage-dependent N-type calcium channel subunit alpha-1B; experiment: Inhibition of N-type calcium channels in IMR-32 human neuroblastoma cells at 10 uM; format: functional, cell-based
Target sequence in this assay (Q00975 whole entry, looked up): as the sequence (Q00975 whole entry) above

SMILES | IC50 [3] [nM] | pIC50 [4] | pIC50 [5] | inhibition [6] [%] | inhibition at 10 µM [1] [%] | inhibition at 10 µM [2] [%]
CC(CCC(c1ccccc1)c1ccccc1)(c1ccc(O)c(CN2CCCCCC2)c1)c1ccc(O)c(CN2CCCCCC2)c1 | 9100 | – | – | – | 5 | 18
CC(CCC(O)(c1ccccc1)c1ccccc1)(c1ccc(O)cc1)c1ccc(O)c(CN2CCCCCC2)c1 (configuration not stated) | – | 5.74 | – | – | – | –
CC(CCCN(Cc1ccccc1)Cc1ccccc1)(c1ccc(O)c(CN2CCCCCC2)c1)c1ccc(O)c(CN2CCCCCC2)c1 | 4100 | – | – | – | 24 | 28
CC(CCC(=O)N(Cc1ccccc1)Cc1ccccc1)(c1ccc(O)cc1)c1ccc(O)cc1 | – | – | – | -6 | – | –
CC(C)(c1ccc(O)c(CN2CCCCCC2)c1)c1ccc(O)c(CN2CCCCCC2)c1 | 2000 | 6.01 | – | – | 81 | 77

Continued, in another order:

IC50 [3] [nM] | pIC50 [4] | pIC50 [5] | inhibition [6] [%] | SMILES | inhibition at 10 µM [1] [%] | inhibition at 10 µM [2] [%]
– | – | 4.46 | – | Oc1c(/C=N\C2CCCCC2)ccc2cnccc12 | – | –
– | 5.74 | – | – | O=C(NCC(c1ccc(O)c(CN2CCCCCC2)c1)c1ccc(O)c(CN2CCCCCC2)c1)C(c1ccccc1)c1ccccc1 | – | –
900 | – | – | – | CC(CCC(O)(c1ccccc1)c1ccccc1)(c1ccc(O)c(CN2CCCCCC2)c1)c1ccc(O)c(CN2CCCCCC2)c1 | 78 | 61
